Measured values from patent publication US20070281992A1, “COMBINATION OF GYRASE B INHIBITORS AND PROTEIN SYNTHESIS INHIBITORS AND USES THEREOF” (priority 2006, published 2007).
Where two headings read alike, the source gives them in different places.

Tests used:
Format in all cases: cell-based
[1] = tested on: Methicillin-Resistant Staphylococcus aureus Isolates; test: MIC assay (NCCLS broth dilution), MRSA clinical isolates; settings: Staphylococcus aureus; for MIC: read-out: Minimal Inhibitory Concentration
Method: (§1) Antibiotics: novobiocin, tetracycline, minocycline, oxacillin, and vancomycin were all purchased from Sigma-Aldrich. Linezolid was obtained from Pfizer, Inc. Novobiocin/tetracycline and novobiocin/minocycline were tested in a 2.5:1 ratio to mimic the serum levels. (Vavra, J. J., 1967, Development of resistance to novobiocin, tetracycline, and novobiocin-tetracycline combinations in Staphylococcus aureus populations, J. Bacteriol 93(3):801). Compounds were tested across a concentration range consisting of 11 two-fold serial dilutions of test agent.
(§2) Stock solutions were prepared in sterile deionized water; novobiocin stock concentration was 1600 μg/mL and all other drugs stock solutions were prepared at 640 μg/mL. The stock solutions were allowed to sit at room temperature for one hour to auto-sterilize prior to use in the test. All compounds were in solution in water. The control agent was vancomycin hydrochloride, Sigma Chemical Lot # 015K0825.
(§3) The test organisms for the assay were 52 MSSA, 52 MRSA, 8 VISA, 7 VISE, and 3 LRSA isolates. Quality control strains included Staphylococcus aureus 0100 (ATCC 29213) and Enterococcus faecalis (ATCC 29212).
(§4) The MIC assay was performed according to published NCCLS guidelines. (National Committee for Clinical Laboratory Standards, Methods for Dilution Antimicrobial Susceptibility Tests for Bacteria that Grow Aerobically; Approved Standard-Sixth Edition, NCCLS Document M7-A6 [ISBN 1-56238-486-4], NCCLS, 940 West Valley Road, Suite 1400, Wayne, Pa. 19087-1898 USA, 2003). The test medium was Mueller Hinton II Broth for all organisms.

[2] = tested on: Vancomycin-intermediate Staphylococcus aureus Isolates; test: MIC assay (NCCLS broth dilution), VISA isolates; settings: for MIC: read-out: Minimal Inhibitory Concentration
Method: as §1, §2, §3, §4

[3] = tested on: Linezolid-Resistant Staphylococcus aureus Isolates; test: MIC assay (NCCLS broth dilution), LRSA isolates; settings: for MIC: read-out: Minimal Inhibitory Concentration
Method: as §1, §2, §3, §4

[4] = tested on: Enterococcus faecalis (ATCC 29212); test: MIC assay, quality control strain E. faecalis ATCC 29212; settings: ATCC29212, E. faecalis ATCC 29212, repeat runs 22FEB06-09MAR06, combinations at 2.5:1, read-out: Minimal Inhibitory Concentration, quality control
Method: as §1, §2, §3, §4

[5] = 52 MRSA isolates, combinations at 2.5:1, given as NB/partner

- MIC ([1]; MRSA isolate 760, 03MAR06): 0.12 µg/mL
- MIC ([1]; MRSA isolate 760, 24FEB06): 0.12 µg/mL
- MIC ([1]; MRSA isolate 763, 22FEB06): 0.12 µg/mL
- MIC ([1]; MRSA isolate 765, 22FEB06): 0.06 µg/mL
- MIC ([1]; MRSA isolate 766, 22FEB06): 0.12 µg/mL
- MIC ([1]; MRSA isolate 767, 22FEB06): 0.12 µg/mL
- MIC ([1]; MRSA isolate 768, 22FEB06): 0.06 µg/mL
- MIC ([1]; MRSA isolate 769, 22FEB06): 0.12 µg/mL
- MIC ([1]; MRSA isolate 770, 22FEB06): 0.12 µg/mL
- MIC ([1]; MRSA isolate 771, 22FEB06): 0.12 µg/mL
- MIC ([1]; MRSA isolate 772, 22FEB06): 0.12 µg/mL
- MIC ([1]; MRSA isolate 773, 24FEB06): 0.12 µg/mL
- MIC ([1]; MRSA isolate 774, 24FEB06): 0.12 µg/mL
- MIC ([1]; MRSA isolate 775, 24FEB06): 0.12 µg/mL
- MIC ([1]; MRSA isolate 776, 24FEB06): 0.12 µg/mL
- MIC ([1]; MRSA isolate 777, 24FEB06): 0.12 µg/mL
- MIC ([1]; MRSA isolate 778, 24FEB06): 0.06 µg/mL
- MIC ([1]; MRSA isolate 886, 24FEB06): 0.12 µg/mL
- MIC ([1]; MRSA isolate 887, 24FEB06): 0.12 µg/mL
- MIC ([1]; MRSA isolate 888, 24FEB06): 0.12 µg/mL
- MIC ([1]; MRSA isolate 889, 24FEB06): 0.12 µg/mL
- MIC ([1]; MRSA isolate 1004, 24FEB06): 0.12 µg/mL
- MIC ([1]; MRSA isolate 1010, 22FEB06): 0.12 µg/mL
- MIC ([1]; MRSA isolate 1012, 22FEB06): 0.12 µg/mL
- MIC ([1]; MRSA isolate 1013, 22FEB06): 0.12 µg/mL
- MIC ([1]; MRSA isolate 1014, 22FEB06): 0.12 µg/mL
- MIC ([1]; MRSA isolate 1015, 22FEB06): 0.12 µg/mL
- MIC ([1]; MRSA isolate 1016, 22FEB06): 0.12 µg/mL
- MIC ([1]; MRSA isolate 1017, 22FEB06): 0.12 µg/mL
- MIC ([1]; MRSA isolate 1021, 22FEB06): 0.12 µg/mL
- MIC ([1]; MRSA isolate 1022, 22FEB06): 0.12 µg/mL
- MIC ([1]; MRSA isolate 1023, 22FEB06): 0.12 µg/mL
- MIC ([1]; MRSA isolate 1024, 22FEB06): 0.12 µg/mL
- MIC ([1]; MRSA isolate 1025, 22FEB06): 0.12 µg/mL
- MIC ([1]; MRSA isolate 1135, 22FEB06): 0.12 µg/mL
- MIC ([1]; MRSA isolate 1136, 22FEB06): 0.12 µg/mL
- MIC ([1]; MRSA isolate 1137, 22FEB06): 0.12 µg/mL
- MIC ([1]; MRSA isolate 1138, 22FEB06): 0.12 µg/mL
- MIC ([1]; MRSA isolate 1222, 03MAR06): 0.06 µg/mL
- MIC ([1]; MRSA isolate 1222, 24FEB06): 0.12 µg/mL
- MIC ([1]; MRSA isolate 1653, 03MAR06): 0.06 µg/mL
- MIC ([1]; MRSA isolate 1658, 03MAR06): 0.06 µg/mL
- MIC ([1]; MRSA isolate 1659, 03MAR06): 0.06 µg/mL
- MIC ([1]; MRSA isolate 1661, 03MAR06): 0.12 µg/mL
- MIC ([1]; MRSA isolate 1729, 03MAR06): 16 µg/mL
- MIC ([1]; MRSA isolate 1730, 24FEB06): 0.12 µg/mL
- MIC ([1]; MRSA isolate 2009, 24FEB06): 1 µg/mL
- MIC ([1]; MRSA isolate 2010, 24FEB06): 0.12 µg/mL
- MIC ([1]; MRSA isolate 2011, 24FEB06): 0.12 µg/mL
- MIC50 [1, 5]: 0.12 µg/mL
- MIC90 [1, 5]: 0.12 µg/mL
- MIC Range ([2]; 2 VISA isolates, combinations at 2.5:1, given as NB/partner): .06 to 25 µg/mL
- MIC ([2]; Staphylococcus aureus, VISA isolate 2012, 03MAR06): 0.25 µg/mL
- MIC ([2]; Staphylococcus aureus, VISA isolate 2018, 03MAR06): 0.06 µg/mL
- MIC50 ([2]; Staphylococcus aureus, 2 VISA isolates, combinations at 2.5:1, given as NB/partner): 0.06 µg/mL
- MIC Range ([3]; 3 LRSA isolates, combinations at 2.5:1): 0.12 to 2 µg/mL
- MIC ([3]; Staphylococcus aureus, LRSA isolate 1651, 24FEB06): 0.12 µg/mL
- MIC ([3]; Staphylococcus aureus, LRSA isolate 1652, 24FEB06): 0.12 µg/mL
- MIC ([3]; Staphylococcus aureus, LRSA isolate 1725, 24FEB06): 2 µg/mL
- MIC50 ([3]; Staphylococcus aureus, 3 LRSA isolates, combinations at 2.5:1): 0.12 µg/mL
- MIC [4]: 2 µg/mL
Structure (SMILES): CN(C)c1ccc(O)c2c1C[C@H]1C[C@H]3[C@H](N(C)C)C(O)=C(C(N)=O)C(=O)[C@@]3(O)C(O)=C1C2=O [MI, minocycline]
